# Source: patent US20240300954A1, “NOVEL MODULATORS OF THE SIGMA-2 RECEPTOR AND THEIR METHOD OF USE” (Temple University-Of The Commonwealth System of Higher …, priority 2017, published 2024)
# Target: sigma-2 receptors (Homo sapiens, UniProt Q5BJF2)
# Assay: Radiolabel Binding Studies for the Sigma-2 Receptor (3H-DTG competition)
# Details: 3H-DTG radioligand; membrane fractions of cells expressing recombinant sigma-2 receptors
# Procedure: A solution of the compound of the disclosure to be tested is prepared as a 1-mg/ml stock in Assay Buffer or DMSO according to its solubility. A similar stock of the reference compound Haloperidol is also prepared as a positive control. Eleven dilutions (5× assay concentration) of the compound of the disclosure and Haloperidol are prepared in the Assay Buffer by serial dilution to yield final corresponding assay concentrations ranging from 10 pM to 10 μM.
# A stock concentration of 5 nM ^3H-1,3-di-(2-tolyl)guanidine (^3H-DTG) is prepared in 50 mM Tris-HCl, 10 mM MgCl2, 1 mM EDTA, pH 7.4 (Assay Buffer). Aliquots (50 μl) of radioligand are dispensed into the wells of a 96-well plate containing 100 μl of Assay Buffer. Duplicate 50 μl aliquots of the compound of the disclosure test and Haloperidol positive control reference compound serial dilutions are added.
# Membrane fractions of cells expressing recombinant sigma-2 receptors (50 μL) are dispensed into each well. The membranes are prepared from stably tranfected cell lines expressing sigma-2 receptors cultured on 10-cm plates by harvesting PBS-rinsed monolayers, resuspending and lysing in chilled, hypotonic 50 mM Tris-HCl, pH 7.4, centrifuging at 20,000×g, decanting the supernatant and storing at −80° C.; the membrane preparations are resuspended in 3 ml of chilled Assay Buffer and homogenized by several passages through a 26 gauge needle before using in the assay.
# The 250-μl reactions are incubated at room temperature for 1.5 hours, then harvested by rapid filtration onto 0.3% polyethyleneimine-treated, 96-well filter mats using a 96-well Filtermate harvester. Four rapid 500-μl washes are performed with chilled Assay Buffer to reduce non-specific binding. The filter mats are dried, then scintillant is added to the filters and the radioactivity retained on the filters is counted in a Microbeta scintillation counter.
# Raw data (dpm) representing total radioligand binding (i.e., specific+non-specific binding) are plotted as a function of the logarithm of the molar concentration of the competitor (i.e., test or reference compound). Non-linear regression of the normalized (i.e., percent radioligand binding compared to that observed in the absence of test or reference compound) raw data is performed in Prism 4.0 (GraphPad Software) using the built-in three parameter logistic model describing ligand competition binding to radioligand-labeled sites:
# [formula] • where bottom equals the residual radioligand binding measured in the presence of 10 μM reference compound (i.e., non-specific binding) and top equals the total radioligand binding observed in the absence of competitor. The log IC50 (i.e., the log of the ligand concentration that reduces radioligand binding by 50%) is thus estimated from the data and used to obtain the Ki by applying the Cheng-Prusoff approximation:
# [formula] • where [ligand] equals the assay radioligand concentration and KD equals the affinity constant of the radioligand for the target receptor.
# Sequence of sigma-2 receptors (Q5BJF2 whole entry, looked up): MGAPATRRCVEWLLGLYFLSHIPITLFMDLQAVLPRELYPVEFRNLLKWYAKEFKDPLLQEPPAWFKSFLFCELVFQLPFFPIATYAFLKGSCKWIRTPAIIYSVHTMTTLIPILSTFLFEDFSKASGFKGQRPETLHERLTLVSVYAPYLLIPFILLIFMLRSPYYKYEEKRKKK
row,Compound,IC50 [nM]
1,CCC1(CC)CC(CCN2CC3CN(c4ccccc4)CC3C2)OC1=O (stereo not drawn) [Entry 1],3.5
2,CCC1(CC)CC(CCN2CC3CN(c4ccncc4)CC3C2)OC1=O (stereo not drawn) [Entry 2],29
3,CCC1(CC)CC(CCN2CC3CN(c4ccccc4C(C)C)CC3C2)OC1=O (stereo not drawn) [Entry 4],2
4,Cc1cnccc1N1CC2CN(CCC3CC4(CCCCC4)C(=O)O3)CC2C1 (stereo not drawn) [Entry 6],3.9
5,Cc1cc(N2CC3CN(CCC4CC5(CCCCC5)C(=O)O4)CC3C2)ccn1 (stereo not drawn) [Entry 7],11
6,Cc1cc(N2CC3CN(CCC4CC5(CCCCC5)C(=O)O4)CC3C2)cc(C)n1 (stereo not drawn) [Entry 8],24
7,CCC1(CC)CC(CCN2CC3(C2)CN(c2ccncc2)C3)OC1=O (stereo not drawn) [Entry 10],59
8,CCC1(CC)CC(CCN2CC3CN(c4ccccc4C#N)CC3C2)OC1=O (stereo not drawn) [Entry 16],6.8
9,CCC1(CC)CC(CCN2CC3CN(c4cccc(C#N)c4)CC3C2)OC1=O (stereo not drawn) [Entry 17],7
10,CCC1(CC)CC(CCN2CC3CN(c4ccc(C#N)cc4)CC3C2)OC1=O (stereo not drawn) [Entry 18],9.6
11,CCC1(CC)CC(CCN2CC3CN(c4ccccc4OC)CC3C2)OC1=O (stereo not drawn) [Entry 19],6.5
12,CCC1(CC)CC(CCN2CC3CN(c4cccc(OC)c4)CC3C2)OC1=O (stereo not drawn) [Entry 20],25
13,CCC1(CC)CC(CCN2CC3CN(c4ccc(OC)cc4)CC3C2)OC1=O (stereo not drawn) [Entry 21],22

# Now from value to compound:
row,IC50 [nM],Compound
1,39,O=C1OC(CCN2CC3CN(c4ccncc4)CC3C2)CC12CCCCC2 (stereo not drawn) [Entry 3]
2,2.4,CC(C)c1ccccc1N1CC2CN(CCC3CC4(CCCCC4)C(=O)O3)CC2C1 (stereo not drawn) [Entry 5]
3,34,O=C1OC(CCN2CC3(C2)CN(c2ccncc2)C3)CC12CCCCC2 (stereo not drawn) [Entry 9]
4,30,O=C1OC(CCN2CC3(C2)CN(c2ccccc2)C3)CC12CCCCC2 (stereo not drawn) [Entry 11]
5,3.9,Cc1cnccc1N1CC2(CN(CCC3CC4(CCCCC4)C(=O)O3)C2)C1 (stereo not drawn) [Entry 12]
6,1.2,Cc1cc(N2CC3(CN(CCC4CC5(CCCCC5)C(=O)O4)C3)C2)ccn1 (stereo not drawn) [Entry 13]
7,1.5,Cc1cc(N2CC3(CN(CCC4CC5(CCCCC5)C(=O)O4)C3)C2)cc(C)n1 (stereo not drawn) [Entry 14]
8,53,CCC1(CC)CC(CCN2CC3(C2)CN(c2ccccc2)C3)OC1=O (stereo not drawn) [Entry 15]
